#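 Cultured in 96-well plates, cells were exposed to test compound for 48 hours across five concentrations. GI50: concentration for 50% inhibition of growth. TGI denotes the concentration required for complete inhibition of growth.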
# What was measured:
# Test in all cases: growth of human tumour cells (NCI), 48 h
# MALME-3M melanoma = system: MALME-3M melanoma
# K-562 leukemia = system: K-562 leukemia
# U251 CNS = system: U251 CNS
# ACHN renal = system: ACHN renal
# RPMI-8226 leukemia = system: RPMI-8226 leukemia
# HCT-116 colon = system: HCT-116 colon
# HOP-92 NSCLC = system: HOP-92 NSCLC
# HT29 colon = system: HT29 colon
# M14 melanoma = system: M14 melanoma
# DU-145 prostate = system: DU-145 prostate
# SK-MEL-28 melanoma = system: SK-MEL-28 melanoma
# BT-549 breast = system: BT-549 breast
# UACC-257 melanoma = system: UACC-257 melanoma
# MDA-MB-435 = system: MDA-MB-435
# OVCAR-8 ovarian = system: OVCAR-8 ovarian
# LOX IMVI melanoma = system: LOX IMVI melanoma
# T-47D breast = system: T-47D breast
# SF-539 CNS = system: SF-539 CNS
# NCI/ADR-RES ovarian = system: NCI/ADR-RES ovarian
# HL-60(TB) leukemia = system: HL-60(TB) leukemia
# OVCAR-3 ovarian = system: OVCAR-3 ovarian
# MDA-MB-231 breast = system: MDA-MB-231 breast
# HOP-62 NSCLC = system: HOP-62 NSCLC
# SF-268 CNS = system: SF-268 CNS
# HCT-15 colon = system: HCT-15 colon
# A549 NSCLC = system: A549 NSCLC
# NCI-H522 lung = system: NCI-H522 lung
# OVCAR-4 ovarian = system: OVCAR-4 ovarian
# COLO 205 colon = system: COLO 205 colon
# CCRF-CEM leukemia = system: CCRF-CEM leukemia
# SW-620 colon = system: SW-620 colon
# UACC-62 melanoma = system: UACC-62 melanoma
# SR leukemia = system: SR leukemia
# MOLT-4 leukemia = system: MOLT-4 leukemia
# CAKI-1 renal = system: CAKI-1 renal
# SF-295 CNS = system: SF-295 CNS
# EKVX NSCLC = system: EKVX NSCLC
# HS 578T breast = system: HS 578T breast
# NCI-H23 lung = system: NCI-H23 lung
# SN12C renal = system: SN12C renal
# KM12 colon = system: KM12 colon
# RXF 393 renal = system: RXF 393 renal
# NCI-H226 lung = system: NCI-H226 lung
# PC-3 prostate = system: PC-3 prostate
# 786-0 renal = system: 786-0 renal
# SK-OV-3 ovarian = system: SK-OV-3 ovarian
# SK-MEL-5 melanoma = system: SK-MEL-5 melanoma
# SNB-75 CNS = system: SNB-75 CNS
# A498 renal = system: A498 renal
# SK-MEL-2 melanoma = system: SK-MEL-2 melanoma
# MCF7 breast = system: MCF7 breast
# HCC-2998 colon = system: HCC-2998 colon
# IGROV1 ovarian = system: IGROV1 ovarian
# NCI-H460 lung = system: NCI-H460 lung
# SNB-19 CNS = system: SNB-19 CNS
# OVCAR-5 ovarian = system: OVCAR-5 ovarian
# TK-10 renal = system: TK-10 renal
# UO-31 renal = system: UO-31 renal
compound,measurement,setting,value
COc1cccc(C2=NN(C(C)=O)C(c3cc(OC)c(OC)c(OC)c3)C2)c1 (stereo not given),GI50,MALME-3M melanoma,2.47 µM
same,TGI,MALME-3M melanoma,> 100 µM
same,GI50,K-562 leukemia,0.9 µM
same,TGI,K-562 leukemia,> 84.5 µM
same,GI50,U251 CNS,3.37 µM
same,TGI,U251 CNS,> 100 µM
same,GI50,ACHN renal,16 µM
same,TGI,ACHN renal,> 100 µM
same,GI50,RPMI-8226 leukemia,1.08 µM
same,TGI,RPMI-8226 leukemia,4.36 µM
same,GI50,HCT-116 colon,2.59 µM
same,TGI,HCT-116 colon,> 100 µM
same,GI50,HOP-92 NSCLC,14.9 µM
same,TGI,HOP-92 NSCLC,> 100 µM
same,GI50,HT29 colon,3.1 µM
same,TGI,HT29 colon,> 100 µM
same,GI50,M14 melanoma,1.47 µM
same,TGI,M14 melanoma,> 100 µM
same,GI50,DU-145 prostate,2.87 µM
same,TGI,DU-145 prostate,> 100 µM
same,GI50,SK-MEL-28 melanoma,> 22.8 µM
same,TGI,SK-MEL-28 melanoma,> 100 µM
same,GI50,BT-549 breast,5.57 µM
same,TGI,BT-549 breast,> 100 µM
same,GI50,UACC-257 melanoma,> 100 µM
same,TGI,UACC-257 melanoma,> 100 µM
same,GI50,MDA-MB-435,0.224 µM
same,TGI,MDA-MB-435,0.782 µM
same,GI50,OVCAR-8 ovarian,5.1 µM
same,TGI,OVCAR-8 ovarian,> 100 µM
same,GI50,LOX IMVI melanoma,7.22 µM
same,TGI,LOX IMVI melanoma,> 100 µM
same,GI50,T-47D breast,4.49 µM
same,TGI,T-47D breast,> 100 µM
same,GI50,SF-539 CNS,2.81 µM
same,TGI,SF-539 CNS,> 25.7 µM
same,GI50,NCI/ADR-RES ovarian,1.9 µM
same,TGI,NCI/ADR-RES ovarian,> 20.1 µM
same,GI50,HL-60(TB) leukemia,1.55 µM
same,TGI,HL-60(TB) leukemia,6.51 µM
same,GI50,OVCAR-3 ovarian,1.09 µM
same,TGI,OVCAR-3 ovarian,3.8 µM
same,GI50,MDA-MB-231 breast,8.82 µM
same,TGI,MDA-MB-231 breast,> 100 µM
same,GI50,HOP-62 NSCLC,0.827 µM
same,GI50,SF-268 CNS,10.8 µM
same,TGI,SF-268 CNS,> 100 µM
same,GI50,HCT-15 colon,1.42 µM
same,TGI,HCT-15 colon,> 100 µM
same,GI50,A549 NSCLC,6.15 µM
same,TGI,A549 NSCLC,> 100 µM
same,GI50,NCI-H522 lung,3.97 µM
same,TGI,NCI-H522 lung,> 66.3 µM
same,GI50,OVCAR-4 ovarian,6.88 µM
same,TGI,OVCAR-4 ovarian,> 100 µM
same,GI50,COLO 205 colon,3.35 µM
same,TGI,COLO 205 colon,12.3 µM
same,GI50,CCRF-CEM leukemia,0.921 µM
same,TGI,CCRF-CEM leukemia,5.61 µM
same,GI50,SW-620 colon,0.668 µM
same,TGI,SW-620 colon,> 100 µM
same,GI50,UACC-62 melanoma,3.85 µM
same,TGI,UACC-62 melanoma,> 100 µM
same,GI50,SR leukemia,0.437 µM
same,TGI,SR leukemia,> 100 µM
same,GI50,MOLT-4 leukemia,3.67 µM
same,TGI,MOLT-4 leukemia,> 100 µM
same,GI50,CAKI-1 renal,2.79 µM
same,TGI,CAKI-1 renal,> 100 µM
same,GI50,SF-295 CNS,0.576 µM
same,TGI,SF-295 CNS,3.98 µM
same,GI50,EKVX NSCLC,4.96 µM
same,TGI,EKVX NSCLC,> 100 µM
same,GI50,HS 578T breast,1.36 µM
same,TGI,HS 578T breast,5.11 µM
same,GI50,NCI-H23 lung,3.48 µM
same,TGI,NCI-H23 lung,> 100 µM
same,GI50,SN12C renal,5.69 µM
same,TGI,SN12C renal,> 100 µM
same,GI50,KM12 colon,1.48 µM
same,TGI,KM12 colon,> 100 µM
same,GI50,RXF 393 renal,4.02 µM
same,TGI,RXF 393 renal,> 100 µM
same,GI50,NCI-H226 lung,> 100 µM
same,TGI,NCI-H226 lung,> 100 µM
same,GI50,PC-3 prostate,1.71 µM
same,TGI,PC-3 prostate,> 100 µM
same,GI50,786-0 renal,2.63 µM
same,TGI,786-0 renal,> 20.6 µM
same,GI50,SK-OV-3 ovarian,3.04 µM
same,TGI,SK-OV-3 ovarian,> 47.7 µM
same,GI50,SK-MEL-5 melanoma,0.829 µM
same,TGI,SK-MEL-5 melanoma,10.2 µM
same,GI50,SNB-75 CNS,1.73 µM
same,TGI,SNB-75 CNS,> 100 µM
same,GI50,A498 renal,6.44 µM
same,TGI,A498 renal,> 30 µM
same,GI50,SK-MEL-2 melanoma,23.8 µM
same,TGI,SK-MEL-2 melanoma,> 100 µM
same,GI50,MCF7 breast,0.529 µM
same,TGI,MCF7 breast,> 32.3 µM
same,GI50,HCC-2998 colon,2.26 µM
same,TGI,HCC-2998 colon,16 µM
same,GI50,IGROV1 ovarian,4.08 µM
same,TGI,IGROV1 ovarian,> 72.1 µM
same,GI50,NCI-H460 lung,2.14 µM
same,TGI,NCI-H460 lung,11.2 µM
same,GI50,SNB-19 CNS,3.18 µM
same,TGI,SNB-19 CNS,> 100 µM
same,GI50,OVCAR-5 ovarian,8.09 µM
same,TGI,OVCAR-5 ovarian,> 100 µM
same,GI50,TK-10 renal,25.8 µM
same,TGI,TK-10 renal,> 100 µM
same,GI50,UO-31 renal,7.65 µM
same,TGI,UO-31 renal,> 100 µM

# — PubChem BioAssay (NCI)
